From patent US7419657B2, “Treatment of atherosclerotic disorders” (priority 2001, dated 2008)
Several values for one entry are separate records, joined by “and”; a condition that tells them apart may be missing. Identical values can stand only once. Like-named read-outs stand apart in the source and are kept apart here. Marks after values point to notes of the source that are not given here.

Legend:
anti-Chlamydia abzymes [1] = type: biochemical, human; design: key to In-vitro Inhibition: + = inhibition; − = no inhibition
anti-Chlamydia abzymes [2] = experiment: Serum abzyme activity in stable angina patients treated with azithromycin with or without aspirin (Example 8); type: in vivo, human; details: azithromycin 500 mg once per day
anti-Chlamydia IgG [3] = details: best of previously undertaken trials with azithromycin; cited from earlier work
anti-Chlamydia abzymes [4] = experiment: Anti-abzyme therapy trial in ischaemic heart disease: serum abzyme activity; type: in vivo, human
[5] = Anti-abzyme therapy trial: modified Rose-Blackburn Questionnaire; type: in vivo, human; design: Score by modified Rose-Blackburn Questionnaire, 60 days after start of the treatment / Rose Blackthorn Score Day 60: scale not given here
From the text: The progression of the clinical condition of the patients was monitored by the use of the modified Bruce Protocol for treadmill exercise/stress ECG testing and on the Rose-Blackburn Questionnaire (Cardiovascular Survey Methods. WHO, Geneva, 1968).

anti-Chlamydia IgG [6] = experiment: Anti-abzyme therapy trial: anti-Chlamydia IgG; type: in vivo, human
human plasma = experiment: In vitro kaolin clotting of plasma with atheroma IgG abzymes; details: pH 6.2
[7] = group mean, before treatment 45.9
[8] = individual stable angina patients
[9] = Therapy Group A individual IHD patients, azithromycin 500 mg daily
[10] = Therapy Group A mean, before treatment 47.5
[11] = individual IHD patients negative for anti-Chlamydia IgG

## CC[C@H]1OC(=O)[C@H](C)[C@@H](O[C@H]2C[C@@](C)(OC)[C@@H](O)[C@H](C)O2)[C@H](C)[C@@H](O[C@@H]2O[C@H](C)C[C@H](N(C)C)[C@H]2O)[C@](C)(O)C[C@@H](C)CN(C)[C@H](C)[C@@H](O)[C@]1(C)O [Azithromycin]
anti-Chlamydia abzymes [1]; in DMSO, 1 μM, control 61
  Lipid oxidising activity of anti-Chlamydia abzymes: 7 μM MDA/ml
anti-Chlamydia abzymes [1]; in DMSO, 5 μM, control 61
  Lipid oxidising activity of anti-Chlamydia abzymes: 0 μM MDA/ml
anti-Chlamydia abzymes [1]; suspension in water, 1 μM, control 61
  Lipid oxidising activity of anti-Chlamydia abzymes: 19 μM MDA/ml
anti-Chlamydia abzymes [1]; suspension in water, 2 μM, control 61
  Lipid oxidising activity of anti-Chlamydia abzymes: 0 μM MDA/ml
anti-Chlamydia abzymes [1]; suspension in water, 10 μM, control 61
  Lipid oxidising activity of anti-Chlamydia abzymes: 0 μM MDA/ml
anti-Chlamydia abzymes [1]; suspension in water, 20 μM, control 61
  Lipid oxidising activity of anti-Chlamydia abzymes: 0 μM MDA/ml
anti-Chlamydia abzymes [2]; [7]
  Anti-Chlamydia abzyme activity, 15 days after the start of the treatment: 19.6 μM MDA/ml
  Anti-Chlamydia abzyme activity, 30 days after the start of the treatment: 17.7 μM MDA/ml
anti-Chlamydia abzymes [2]; [8]
  Anti-Chlamydia abzyme activity, 15 days after the start of the treatment: 60 μM MDA/ml and 0 μM MDA/ml (3×) and 8.3 μM MDA/ml and 6.7 μM MDA/ml (3×) and 33 μM MDA/ml and 75 μM MDA/ml
  Anti-Chlamydia abzyme activity, 30 days after the start of the treatment: 37 μM MDA/ml and 0 μM MDA/ml (3×) and 28 μM MDA/ml and 3.3 μM MDA/ml (2×) and 10 μM MDA/ml and 78 μM MDA/ml
anti-Chlamydia IgG [3]
  treated patients with a reduction of titers of anti-Chlamydia antibodies: 43%
anti-Chlamydia abzymes [4]; [9]
  Anti-Chlamydia abzyme activity, 15 days after the start of treatment: 6.7 μM MDA/ml (3×) and 0 μM MDA/ml (3×) and 60* μM MDA/ml and 8.3 μM MDA/ml and 33 μM MDA/ml and 75* μM MDA/ml and 52* μM MDA/ml
  Anti-Chlamydia abzyme activity, 30 days after the start of treatment: 78** μM MDA/ml and 0 μM MDA/ml (3×) and 37* μM MDA/ml and 28** μM MDA/ml and 3.3 μM MDA/ml (2×) and 10 μM MDA/ml (2×) and 78* μM MDA/ml
  Anti-Chlamydia abzyme activity, 45 days after the start of treatment: 17 μM MDA/ml and 0 μM MDA/ml (5×) and 20* μM MDA/ml and 43* μM MDA/ml and 3.3 μM MDA/ml (2×) and 5.0 μM MDA/ml
  Anti-Chlamydia abzyme activity, 60 days after the start of treatment: 3.3 μM MDA/ml and 6.7 μM MDA/ml (2×) and 0 μM MDA/ml (7×) and 0.5 μM MDA/ml
anti-Chlamydia abzymes [4]; [10]
  Anti-Chlamydia abzyme activity, 15 days after the start of treatment: 22.5 μM MDA/ml
  Anti-Chlamydia abzyme activity, 30 days after the start of treatment: 22.5 μM MDA/ml
  Anti-Chlamydia abzyme activity, 45 days after the start of treatment: 7.4 μM MDA/ml
  Anti-Chlamydia abzyme activity, 60 days after the start of treatment: 1.6 μM MDA/ml
anti-Chlamydia abzymes [4]; Therapy Group A, 3 out of 11
  patients with no changes in the abzyme activity after 15 days: 27%
anti-Chlamydia abzymes [4]; [11]
  Abzyme activity Day 60: 6.7 (2×) and 3.3 and 0
anti-Chlamydia abzymes [4]; summary, group mean, PCG 55.3 ± 6.18, Norm 6.36 ± 1.14
  Anti-Chlamydia abzymes activity, 60 days after treatment: 1.6 ± 0.89 μM/MDA/ml
human, in vivo
  adverse reactions: No adverse reactions
Patient 5, before treatment 10 tablets daily
  tablets of nitroglycerine daily after 15 days of treatment: 5 tablets of nitroglycerine
[5]; group mean
  Score by modified Rose-Blackburn Questionnaire, 60 days after start of the treatment: 14.4 ± 1.14
[5]; [11]
  Rose Blackthorn Score Day 60: 18 and 19 and 10 and 13
[5]; individual patients
  Score by modified Rose-Blackburn Questionnaire, 60 days after start of the treatment: 13 and 16 and 18 and 15 (2×) and 8 and 11 and 17 (2×) and 19 and 10
[5]; summary, group mean, PCG 21.5 ± 1.19
  Clinical Status modified Rose G., Blackburn H Questionnaire, 60 days after treatment: 14.4 ± 1.14
anti-Chlamydia IgG [6]; summary, group value, before treatment 43.6, 48.5, 52.0 (A, C, B), immuno-fluorescent assay
  Anti-Chlamydia IgG, 60 days after treatment: 0 (titers)^−1
anti-Chlamydia IgG [6]; therapy trial
  presence of anti-Chlamydia IgG after the intensive regimen: totally eliminated

## [N-]=[N+]=[N-].[Na+] [NaN1, sodium azide]
anti-Chlamydia abzymes [1]
  In-vitro Inhibition: +
  Lipid oxidising activity of anti-Chlamydia abzymes: 0 μM MDA/ml
  Result (inhibition of anti-Chlamydia abzymes): Positive
Human plasma
  abzyme effect on the plasma clotting after pre-incubation of the abzymes with inhibitor: reduction
